Values joined by “and” are separate entries in the source; they are usually repeats but may differ in a detail not shown here. Identical values can stand only once. “Also recorded” adds a separate entry of the source. Counter-ions that a name gives are not always drawn. Like-named read-outs stand apart in the source and are kept apart here.
Experiments:
VSV [1] = experiment: microbe, parasite or virus in culture; format: cell-based, vesicular stomatitis virus
Total White Blood Cells = experiment: Stability of white blood cells in whole human blood to added lipid; format: cell-based; design: unit not given here; settings: 15 mM, control 6.4
From the text: Further testing has shown the effect of monoglyceride esters and ether on the total white blood cell concentration in whole human blood.

VSV [2] = experiment: microbe, parasite or virus in culture; format: cell-based, vesicular stomatitis virus strain Indiana; settings: for minimal effective concentration: read-out: lowest concentration which reduced the VSV titer by ≥4.0 log10 units; for antiviral effect in words: fatty acids of Table 2
poliovirus = format: cell-based, Poliovirus type 1 strain Chat; settings: 8 mg/ml, 37° C., 30 min; control 10^4.7 TCID50
Visna virus = experiment: microbe, parasite or virus in culture; format: cell-based, Visna virus strain K796; settings: 37° C., 30 min; for log reduction at 2000 µg/mL: 2 mg/ml
HSV-1 = experiment: microbe, parasite or virus in culture; format: cell-based, herpes simplex virus type 1 strain MacIntyre; settings: 37° C., 30 min; for log reduction at 2000 µg/mL: 2 mg/ml
VSV [3] = experiment: microbe, parasite or virus in culture; format: cell-based, vesicular stomatitis virus; settings: for log reduction at 5000 µM / log reduction at 10000 µM: Vesicular stomatitis virus, read-out: Log10 Reduction in VSV Titer
VSV [4] = experiment: microbe, parasite or virus in culture; format: cell-based, vesicular stomatitis virus strain Indiana
sperm = experiment: Spermicidal test: motility and viability of sperm in semen; format: cell-based; settings: for coating of sperm: B, D 100 mM in semen, 30 minutes
Procedure: The fatty acids and derivatives thereof disclosed here are useful as spermicides and in the treatment of sexually transmitted diseases. […] Four samples tested were comprised as follows:
Five test tubes were prepared, one for each of Samples A to D and a Control. An amount of 0.5 ml of active semen was added to each test tube. Each of Samples A and B and the Control was at 37° C., and Samples C and D were at room temperature. The percentages of motility and viability were measured from 15 seconds to 5 minutes in the case of each of Samples A to D and from 15 seconds to 2 hours for the Control.

[5] = Vesicular stomatitis virus, 0.5 h, read-out: Reduction of virus titer, VSV
[6] = Vesicular stomatitis virus, 0.5 h
[7] = Visna-maedi virus, 0.5 h, read-out: Reduction of virus titer, VV (visna virus)
[8] = Human alphaherpesvirus 1, 0.5 h, read-out: Reduction of virus titer, HSV-1
[9] = 100 mM in semen, 5 min., Sample B 37° C., Sample D room temperature
[10] = 150 mM in semen, 3 min., Sample A 37° C., Sample C room temperature
[11] = 150 mM in semen, 5 min., Sample A 37° C., Sample C room temperature

With CCCCCCCCCCOC[C@@H](O)CO [1-O-Decyl-sn-glycerol, 1-O-decyl-sn-glycerol] the “Reduction in VSV titer” value (VSV [1]; 5 mM, with 10 mM sodium taurocholate, human plasma, 37° 30 min) was 0 Log10, the “antiviral activity of MG ethers relative to esters, in words” value (VSV [1]; human plasma) was “just as effective as the naturally occurring esters” and the “Total White Blood Cells” value (Total White Blood Cells) was 1.31.
CCCCCCCC/C=C\CCCCCCCCOC[C@@H](O)CO [1-O-Oleyl-sn-glycerol, 1-O-oleyl-sn-glycerol] was tested, and the log reduction at 5000 µM (VSV [1]; Vesicular stomatitis virus, 0.5 h, read-out: Reduction in VSV Titer, 5 mM, no sodium taurocholate, human plasma, 37° 30 min) was 0, the log reduction at 10000 µM (VSV [1]; Vesicular stomatitis virus, 0.5 h, read-out: Reduction in VSV Titer, 10 mM, no sodium taurocholate, human plasma, 37° 30 min) was 0 and the log reduction at 15000 µM (VSV [1]; Vesicular stomatitis virus, 0.5 h, read-out: Reduction in VSV Titer, 15 mM, no sodium taurocholate, human plasma, 37° 30 min) was 0. The “antiviral activity of MG ethers relative to esters, in words” value (VSV [1]; human plasma) was “same lack of antiviral activity as the ester”.
For CCCCC/C=C\C/C=C\C/C=C\C/C=C\CCCC(=O)O [Arachidonic (20:4), arachidonic acid], the log reduction at 500 µg/mL (VSV [2]; [5]) was at least 4, the minimal effective concentration (VSV [2]; [6]) was 500 µg/mL and 1600 µM and the “reduction of poliovirus titer” value (poliovirus) was “did not cause a significant reduction of virus titer”.
CCCC(=O)O [Butyric (4:0), Butyric] was tested, and the log reduction at 10000 µg/mL (VSV [2]; [5]) was 0 and the “antiviral effect in words” value (VSV [2]) was “no or a very small antiviral effect”.
For CCCCCCCCCC(=O)O [Capric (10:0), Capric], the log reduction at 4000 µg/mL (VSV [2]; [5]) was at least 4, the minimal effective concentration (VSV [2]; [6]) was 4000 µg/mL and 22000 µM and the log reduction at 4000 µg/mL (Visna virus; Visna-maedi virus, 0.5 h, 4 mg/ml, read-out: Reduction of virus titer, VV (visna virus)) was at least 3.2. The log reduction at 4000 µg/mL (HSV-1; Human alphaherpesvirus 1, 0.5 h, 4 mg/ml, read-out: Reduction of virus titer, HSV-1) was at least 4 and the “reduction of poliovirus titer” value (poliovirus) was “did not cause a significant reduction of virus titer”.
For CCCCCC(=O)O [Caproic (6:0), Caproic], the log reduction at 10000 µg/mL (VSV [2]; [5]) was 0 and the “antiviral effect in words” value (VSV [2]) was “no or a very small antiviral effect”.
In the case of CCCCCCCC(=O)O [Caprylic (8:0), Caprylic], the log reduction at 10000 µg/mL (VSV [2]; [5]) is reported as 1.8, the “antiviral effect in words” value (VSV [2]) is reported as “no or a very small antiviral effect” and the log reduction at 10000 µg/mL (Visna virus; Visna-maedi virus, 0.5 h, 10 mg/ml, read-out: Reduction of virus titer, VV (visna virus)) is reported as at least 3.2.
With CCCCCCCC/C=C/CCCCCCCC(=O)O [Elaidic (18:1 trans), Elaidic] the log reduction at 2000 µg/mL (VSV [2]; [5]) was at least 4 and the minimal effective concentration (VSV [2]; [6]) was 2000 µg/mL and 7000 µM.
CCCCCCCCCCCC(=O)OC[C@@H](O)COP(=O)([O-])OCC[N+](C)(C)C [L-α-Lysophosphatidylcholine lauroyl] was tested, and the “Log10 Reduction in VSV Titer” value (VSV [3]) was 1.7 Log10 and 2.0 Log10, the log reduction at 5000 µM (VSV [3]) was 1.2 and the log reduction at 10000 µM (VSV [3]) was 2.
In the case of CCCCCCCCCC(=O)OC[C@@H](O)COP(=O)([O-])OCC[N+](C)(C)C [L-α-lysophosphatidylcholine decanoyl], the “Log10 Reduction in VSV Titer” value (VSV [3]) is reported as 1.7 Log10, the log reduction at 5000 µM (VSV [3]) is reported as 1.7 and the log reduction at 10000 µM (VSV [3]) is reported as 1.
For CC/C=C\C/C=C\C/C=C\CCCCCCCC(=O)O [Linolenic (18:3), Linolenic], the “Reduction of virus titer, VSV” value (VSV [2]; 1 mg/ml, 37° C., 30 min) was at least 4.0 log10, the “lowest concentration which reduced the VSV titer by ≥4.0 log10 units” value (VSV [2]; 37° C., 30 min) was 1 mg/ml and 3.6 mM and the “Reduction of virus titer, VV (visna virus)” value (Visna virus; 1 mg/ml) was at least 3.2 log10. For the same molecule, the “Reduction of virus titer, HSV-1” value (HSV-1; 1 mg/ml) was at least 4.0 log10 and the “reduction of poliovirus titer” value (poliovirus) was “did not cause a significant reduction of virus titer”.
CCCCCCCC/C=C\CCCCCCCC(=O)OCC(O)CO (centres unmarked) [Monoolein (18:1), Monoolein] was tested, and the “concentration with highest antiviral activity of the concentrations tested (0.5 to 4 mg/ml)” value (VSV [4]; VSV, 37° C., 30 min) was 1.0 mg/ml and 2.8 mM and the log reduction at 1000 µg/mL (VSV [4]; [5]) was 2.3.
For CCCCCCCC/C=C\CCCCCCCC(=O)O [Oleic (18:1 cis), Oleic], the log reduction at 2000 µg/mL (VSV [2]; [5]) was at least 4, the minimal effective concentration (VSV [2]; [6]) was 2000 µg/mL and 7000 µM and the log reduction at 2000 µg/mL (Visna virus; [7]) was at least 3.2. For the same molecule, the log reduction at 2000 µg/mL (HSV-1; [8]) was at least 4 and the “reduction of poliovirus titer” value (poliovirus) was “did not cause a significant reduction of virus titer”.
For CCCCCCCCCCCCCCCC(=O)O [Palmitic (16:0), Palmitic], the log reduction at 20000 µg/mL (VSV [2]; [5]) was 1, the “antiviral effect in words” value (VSV [2]) was “no or a very small antiviral effect” and the log reduction at 20000 µg/mL (Visna virus; Visna-maedi virus, 0.5 h, 20 mg/ml, read-out: Reduction of virus titer, VV (visna virus)) was 0.7. It also gave a log reduction at 20000 µg/mL (HSV-1; Human alphaherpesvirus 1, 0.5 h, 20 mg/ml, read-out: Reduction of virus titer, HSV-1) of 1.
With CCCCCC/C=C\CCCCCCCC(=O)O [Palmitoleic (16:1), Palmitoleic] the log reduction at 2000 µg/mL (VSV [2]; [5]) was at least 4, the minimal effective concentration (VSV [2]; [6]) was 2000 µg/mL and 15000 µM and the log reduction at 2000 µg/mL (Visna virus; [7]) was at least 3.2. For the same molecule, the log reduction at 2000 µg/mL (HSV-1; [8]) was at least 4 and the “reduction of poliovirus titer” value (poliovirus) was “did not cause a significant reduction of virus titer”.
In the case of CCCCCCCCCCCCCCCCCC(=O)O [Stearic (18:0), Stearic], the log reduction at 20000 µg/mL (VSV [2]; [5]) is reported as 0 and the “antiviral effect in words” value (VSV [2]) is reported as “no or a very small antiviral effect”.
For CCCCC/C=C\C/C=C\CCCCCCCC(=O)O [sodium salt of linoleic acid], the “antiviral effect in words” value (VSV [2]) was “antiviral effects similar to those of the free acids”.
In the case of CCCCCCCC/C=C\CCCCCCCC(=O)O [sodium salt of oleic acid], the “antiviral effect in words” value (VSV [2]) is reported as “antiviral effects similar to those of the free acids”.
For L-α-lysophosphatidylcholine caproyl, the “Log10 Reduction in VSV Titer” value (VSV [3]; 5 mM, no sodium taurocholate) was 0 Log10, the “Log10 Reduction in VSV Titer” value (VSV [3]; 5 mM, with 10 mM sodium taurocholate) was 0 Log10 and the “Log10 Reduction in VSV Titer” value (VSV [3]; 10 mM, no sodium taurocholate) was 0 Log10. The “Log10 Reduction in VSV Titer” value (VSV [3]; 10 mM, with 10 mM sodium taurocholate) was 0 Log10, the “Log10 Reduction in VSV Titer” value (VSV [3]; 15 mM, no sodium taurocholate) was 0 Log10 and the “Log10 Reduction in VSV Titer” value (VSV [3]; 15 mM, with 10 mM sodium taurocholate) was 1.0 Log10.
With N-dodecylsucrose the “% mot.” value (sperm; 100 mM in semen, 15 sec., Sample B 37° C., Sample D room temperature) was 17%, the “% mot.” value (sperm; 100 mM in semen, 30 sec., Sample B 37° C., Sample D room temperature) was 9% and the “% mot.” value (sperm; 100 mM in semen, 1 min., Sample B 37° C., Sample D room temperature) was 2%. For the same molecule, the “% mot.” value (sperm; 100 mM in semen, 2 min., Sample B 37° C., Sample D room temperature) was 0%, the “% mot.” value (sperm; 100 mM in semen, 3 min., Sample B 37° C., Sample D room temperature) was 0% and the “% mot.” value (sperm; [9]) was 0%. The “% via.” value (sperm; [9]) was 0%, the “% mot.” value (sperm; 150 mM in semen, 15 sec., Sample A 37° C., Sample C room temperature) was 0% and the “% mot.” value (sperm; 150 mM in semen, 30 sec., Sample A 37° C., Sample C room temperature) was 0%. The “% mot.” value (sperm; 150 mM in semen, 1 min., Sample A 37° C., Sample C room temperature) was 0%, the “% mot.” value (sperm; 150 mM in semen, 2 min., Sample A 37° C., Sample C room temperature) was 0% and the “% mot.” value (sperm; [10]) was 0%. For the same molecule, the “% via.” value (sperm; [10]) was 0%, the “% mot.” value (sperm; [11]) was 0% and the “% via.” value (sperm; [11]) was 0%. For the same molecule, the “time within which 0% viability was effected” value (sperm; A, C 150 mM, B 100 mM in semen) was at most 3 min, the “time within which sperm cells were rendered immobile” value (sperm; A, C 150 mM, B 100 mM in semen) was at most 15 s and the coating of sperm (sperm; A, C 150 mM, listed as Solution C) was “coated the sperm effectively; also recorded: most effective in this regard”. The coating of sperm (sperm; A, C 150 mM, listed as Solution D) was “did not have any coating effect at all”.

Reference: patent US5434182A (priority 1993, dated 1995)
